Results reported in PubChem BioAssay (NCI).
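Protocol summary: plate cells (96-well), add compound at 5 concentrations, incubate 48 h, interpolate endpoints linearly. TGI marks complete inhibition of growth.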

Key:
Assay in all cases: DTP human tumour cell line panel, 48 h
[1] = system: 786-0 renal
[2] = system: A498 renal
[3] = system: A549 NSCLC
[4] = system: ACHN renal
[5] = system: BT-549 breast
[6] = system: CAKI-1 renal
[7] = system: CCRF-CEM leukemia
[8] = system: COLO 205 colon
[9] = system: DU-145 prostate
[10] = system: EKVX NSCLC
[11] = system: HCC-2998 colon
[12] = system: HCT-116 colon
[13] = system: HCT-15 colon
[14] = system: HL-60(TB) leukemia
[15] = system: HOP-62 NSCLC
[16] = system: HOP-92 NSCLC
[17] = system: HS 578T breast
[18] = system: HT29 colon
[19] = system: IGROV1 ovarian
[20] = system: K-562 leukemia
[21] = system: KM12 colon
[22] = system: LOX IMVI melanoma
[23] = system: M14 melanoma
[24] = system: MALME-3M melanoma
[25] = system: MCF7 breast
[26] = system: MDA-MB-231 breast
[27] = system: MDA-MB-435
[28] = system: MDA-N
[29] = system: MOLT-4 leukemia
[30] = system: NCI-H226 lung
[31] = system: NCI-H23 lung
[32] = system: NCI-H460 lung
[33] = system: NCI-H522 lung
[34] = system: NCI/ADR-RES ovarian
[35] = system: OVCAR-3 ovarian
[36] = system: OVCAR-4 ovarian
[37] = system: OVCAR-8 ovarian
[38] = system: PC-3 prostate
[39] = system: RPMI-8226 leukemia
[40] = system: RXF 393 renal
[41] = system: SF-268 CNS
[42] = system: SF-295 CNS
[43] = system: SF-539 CNS
[44] = system: SK-MEL-2 melanoma
[45] = system: SK-MEL-28 melanoma
[46] = system: SK-MEL-5 melanoma
[47] = system: SK-OV-3 ovarian
[48] = system: SN12C renal
[49] = system: SNB-19 CNS
[50] = system: SNB-75 CNS
[51] = system: SR leukemia
[52] = system: SW-620 colon
[53] = system: T-47D breast
[54] = system: TK-10 renal
[55] = system: U251 CNS
[56] = system: UACC-257 melanoma
[57] = system: UO-31 renal
[58] = system: OVCAR-5 ovarian
[59] = system: UACC-62 melanoma

## COc1cc(C2SCC(=O)N2c2ccc(Cl)cc2)cc(OC)c1OC (centres undefined)
[1]
  TGI: 99.6 µM
[2]
  TGI: > 100 µM
[3]
  TGI: > 100 µM
[4]
  TGI: > 100 µM
[5]
  TGI: > 100 µM
[6]
  TGI: > 100 µM
[7]
  TGI: 30.6 µM
[8]
  TGI: > 56.8 µM
[9]
  TGI: > 100 µM
[10]
  TGI: > 60.1 µM
[11]
  TGI: > 100 µM
[12]
  TGI: > 100 µM
[13]
  TGI: > 100 µM
[14]
  TGI: 29.2 µM
[15]
  TGI: > 100 µM
[16]
  TGI: > 100 µM
[17]
  TGI: > 100 µM
[18]
  TGI: > 41 µM
[19]
  TGI: > 100 µM
[20]
  TGI: > 52.9 µM
[21]
  TGI: > 82.8 µM
[22]
  TGI: > 100 µM
[23]
  TGI: > 57.8 µM
[24]
  TGI: > 100 µM
[25]
  TGI: > 100 µM
[26]
  TGI: > 100 µM
[27]
  TGI: 19.4 µM
[28]
  TGI: 20.9 µM
[29]
  TGI: 30.7 µM
[30]
  TGI: 98.4 µM
[31]
  TGI: > 100 µM
[32]
  TGI: > 100 µM
[33]
  TGI: > 100 µM
[34]
  TGI: > 100 µM
[35]
  TGI: > 100 µM
[36]
  TGI: > 100 µM
[37]
  TGI: > 100 µM
[38]
  TGI: > 100 µM
[39]
  TGI: > 55.3 µM
[40]
  TGI: 71.2 µM
[41]
  TGI: > 100 µM
[42]
  TGI: > 100 µM
[43]
  TGI: > 100 µM
[44]
  TGI: > 100 µM
[45]
  TGI: > 100 µM
[46]
  TGI: > 100 µM
[47]
  TGI: > 100 µM
[48]
  TGI: > 100 µM
[49]
  TGI: > 100 µM
[50]
  TGI: > 100 µM
[51]
  TGI: 39.2 µM
[52]
  TGI: > 100 µM
[53]
  TGI: > 24.2 µM
[54]
  TGI: > 100 µM
[55]
  TGI: > 100 µM
[56]
  TGI: > 100 µM
[57]
  TGI: > 100 µM

## Cn1c2ccccc2c(=NNc2ccc(S(=O)(=O)N=C(N)N)cc2)c2ccccc21
[1]
  TGI: 19.2 µM
[3]
  TGI: 26.7 µM
[4]
  TGI: 20.1 µM
[5]
  TGI: 29.1 µM
[6]
  TGI: 38.8 µM
[7]
  TGI: 31.9 µM
[8]
  TGI: 18.7 µM
[9]
  TGI: 32.3 µM
[10]
  TGI: 25 µM
[11]
  TGI: 19.8 µM
[12]
  TGI: 17 µM
[13]
  TGI: 36.7 µM
[14]
  TGI: 38.6 µM
[15]
  TGI: 28.2 µM
[16]
  TGI: 36.4 µM
[17]
  TGI: 49.7 µM
[18]
  TGI: 14.5 µM
[19]
  TGI: 28.5 µM
[20]
  TGI: 18 µM
[21]
  TGI: 20.6 µM
[22]
  TGI: 16.9 µM
[23]
  TGI: 30.1 µM
[24]
  TGI: 20.7 µM
[25]
  TGI: 12.9 µM
[26]
  TGI: 32.4 µM
[27]
  TGI: 23.7 µM
[28]
  TGI: 25.1 µM
[29]
  TGI: 13.4 µM
[30]
  TGI: 19 µM
[31]
  TGI: 26.9 µM
[32]
  TGI: 14 µM
[33]
  TGI: 11 µM
[34]
  TGI: 71.1 µM
[35]
  TGI: 23 µM
[36]
  TGI: 16.8 µM
[58]
  TGI: 20.2 µM
[37]
  TGI: 26.4 µM
[38]
  TGI: 21.3 µM
[39]
  TGI: 43.4 µM
[40]
  TGI: 10.8 µM
[41]
  TGI: 22.1 µM
[42]
  TGI: 31.1 µM
[43]
  TGI: 27.3 µM
[44]
  TGI: 28 µM
[46]
  TGI: 20.1 µM
[47]
  TGI: 21.3 µM
[48]
  TGI: 21.9 µM
[49]
  TGI: 22.6 µM
[50]
  TGI: 25.4 µM
[51]
  TGI: 40.5 µM
[52]
  TGI: 21.1 µM
[53]
  TGI: 35.6 µM
[54]
  TGI: 26.5 µM
[55]
  TGI: 21.6 µM
[56]
  TGI: 34.9 µM
[59]
  TGI: 32 µM
[57]
  TGI: 22 µM
